Legend:
Format in all cases: in vivo
[1] = test system: adult unfed cat fleas (Ctenocephalides felis); experiment: Ctenocephalides felis oral test; settings: 48 h, read-out: activity (mortality)
Protocol: Ctenocephalides felis—Oral Test
Solvent: dimethyl sulfoxide
To produce a suitable preparation of active compound, 10 mg of active compound are dissolved in 0.5 mL solvent, and the concentrate is diluted with citrated cattle blood to the desired concentration.
Approximately 20 adult unfed cat fleas (Ctenocephalides felis) are placed in a flea chamber whose top and bottom is covered with gauze. A chamber whose bottom is sealed with parafilm, is filled with the blood-compound solution and placed on top of the flea chamber, so that the fleas can suck the blood. The blood chamber is heated to 37° C. whereas the flea chamber is kept at room temperature.
After 2 days mortality in % is determined. 100% means all the fleas have been killed; 0% means none of the fleas have been killed.

[2] = test system: adult engorged female ticks (Rhipicephalus microplus); experiment: Rhipicephalus (Boophilus) microplus injection test; settings: 168 h, application rate 4 μg/tick, egg deposition after 7 days, read-out: activity (efficacy: infertile eggs)
In short: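 Five adult engorged female ticks injected into the abdomen with 1 μL compound solution in DMSO, then held in a climate chamber. Fertile egg deposition assessed after 7 days, unclear eggs kept until hatching (about 42 days); efficacy 100% = all eggs infertile, 0% = all fertile.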

[3] = test system: Rhipicephalus (Boophilus) microplus larvae (strain Parkhurst, resistant against synthetic pyrethroids); experiment: Rhipicephalus (Boophilus) microplus in-vitro contact test, larval cattle tick; settings: after 48 hours, read-out: activity (efficacy: larvae dead or moribund); for pest or weed control at 1 µg/cm2, 100 g/ha: application rate 1 μg/cm^2 (=100 g/ha); for pest or weed control at 5 µg/cm2, 500 g/ha: application rate 5 μg/cm^2 (=500 g/ha)
In short: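 Acetone solutions were coated onto glass tube walls, giving 5 μg/cm^2 at 900 ppm. Once dry, 20–50 pyrethroid-resistant Parkhurst larvae were added per tube and held 48 h at 27 °C and 85% RH. Efficacy was scored by negative geotaxis as the percentage of dead or moribund larvae.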

[4] = test system: adult cat fleas (Ctenocephalides felis); experiment: Ctenocephalides felis in-vitro contact test, adult cat flea; settings: application rate 5 μg/cm^2 (=500 g/ha), after 48 hours, read-out: activity (efficacy: fleas dead or moribund)
In short: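 Acetone solutions of compound were coated onto inner walls of glass tubes (900 ppm giving 5 μg/cm^2) and dried; 5-10 adult C. felis were then held 48 h at room temperature. Efficacy = % fleas dead or moribund, judged by inability to escape a 45-50° C heating plate within 5 min.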

[5] = test system: fall armyworm larvae (Spodoptera frugiperda); experiment: Spodoptera frugiperda spray test; settings: 168 h, application rate 100 g/ha, after 7 days, maize leaf sections
In short: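 Maize leaf sections sprayed with compound diluted in water with 1000 ppm emulsifier, then infested with larvae once dry. Mortality (%) scored after 7 days; 100% = all caterpillars killed.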

[6] = test system: green peach aphid (Myzus persicae); experiment: Myzus persicae oral test; settings: 120 h, read-out: activity (mortality)
In short: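 Compound was dissolved at 1 part by weight in 100 parts acetone, then diluted with water to test concentration and combined with IPL41 insect medium (33%+15% sugar). A mixed aphid population fed on this through a parafilm seal, and mortality (%) was scored after 5 days.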

[7] = test system: adult brown dog ticks (Rhipicephalus sanguineus); experiment: Rhipicephalus sanguineus in-vitro contact test, adult brown dog ticks; settings: application rate 5 μg/cm^2 (=500 g/ha), after 48 hours, read-out: activity (efficacy: ticks dead or moribund)
In short: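 Acetone solution (900 ppm giving 5 μg/cm²) coated on inner walls of glass tubes; after drying, 5-10 adult ticks added and held at room temperature 48 h. Ticks then placed on 45-50 °C plate ≤5 min; those unable to climb away scored dead/moribund, efficacy as % affected.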

[8] = test system: larvae of the banded cucumber beetle (Diabrotica balteata); experiment: Diabrotica balteata spray test; settings: 168 h, application rate 100 g/ha (=32 μg/well), after 7 days, wheat seeds, read-out: activity (efficacy: seedlings grown)
In short: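 Wheat seeds germinated 1 day on agar were sprayed with compound diluted in water with 1000 ppm emulsifier, then infested with 10-20 Diabrotica balteata larvae. Efficacy in % scored after 7 days: 100% = seedlings grown as untreated, uninfected control; 0% = no seedlings grown.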

[9] = test system: green peach aphid (Myzus persicae); experiment: Myzus persicae spray test; settings: foliar, 120 h, application rate 100 g/ha, after 5 days, Chinese cabbage leaf disks, read-out: activity (mortality)
In short: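 Chinese cabbage leaf disks infested with all aphid instars were sprayed with compound diluted in water containing emulsifier (1000 ppm). Mortality (%) was scored after 5 days, 100% meaning all aphids killed.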

[10] = test system: adult mosquitoes Aedes aegypti strain MONHEIM; experiment: Aedes aegypti test (AEDSAE surface treatment & contact assay); settings: surface concentration 20 mg/m^2, exposure 30 minutes, 24 hours after contact, read-out: efficacy (mortality)
Protocol: Aedes aegypti Test (AEDSAE Surface Treatment & Contact Assay)
(§1) Solvent: Aceton+2000 ppm rapeseed oil methyl ester (RME)
(§2) In order to produce a sufficient, active ingredient containing solution it is necessary to solve the test compound in the solvent-mix (acetone at 2 mg/ml/RME 2000 ppm). This solution is pipetted onto a glazed tile and after evaporation of the acetone, adult mosquitoes of the species Aedes aegypti strain MONHEIM are placed onto the dried surface. The exposure time is 30 minutes.
(§3) Mortality in percent (%) is determined 24 hours after contact of the insects to the treated surface. 100% mortality means that all tested insects are dead, whereas 0% means that no insect died.

[11] = test system: larvae of the southern green stink bug (Nezara viridula); experiment: Nezara viridula spray test; settings: 96 h, application rate 100 g/ha, after 4 days, barley plants
Protocol: Nezara viridula—Spray Test
To produce a suitable preparation of active compound, 1 part by weight of active compound is mixed with the stated amount of solvent, and the concentrate is diluted with water, containing an emulsifier concentration of 1000 ppm, to the desired concentration. Further test concentrations are prepared by dilution with emulsifier containing water.
Barley plants (Hordeum vulgare) are sprayed with a test solution containing the desired concentration of the active ingredient and are infested with larvae of the southern green stink bug (Nezara viridula).
After 4 days mortality in % is determined. 100% means all the stink bugs have been killed; 0% means none of the stink bugs have been killed.

[12] = test system: adult flies Musca domestica strain WHO-N; experiment: Musca domestica test (MUSCDO surface treatment & contact assay); settings: 24 hours after contact, read-out: efficacy (mortality)
Protocol: Musca domestica Test (MUSCDO Surface Treatment & Contact Assay)
as §1
as §2, with “flies” for “mosquitoes”, “Musca domestica” for “Aedes aegypti”, “WHO-N” for “MONHEIM”
as §3

Row | SMILES | mortality at 100 ppm [1] [%] | pest or weed control at 0.004 mg [2] [%] | pest or weed control at 1 µg/cm2, 100 g/ha [3] [%] | pest or weed control at 5 µg/cm2, 500 g/ha [3] [%] | pest or weed control at 5 µg/cm2 [4] [%] | mortality at 100 g/ha [5] [%] | mortality at 4 ppm [6] [%] | pest or weed control at 5 µg/cm2, 500 g/ha [7] [%] | pest or weed control at 32 µg/disc, 100 g/ha [8] [%] | mortality at 100 g/ha [9] [%] | mortality at 20 ppm [6] [%] | mortality at 20 mg/m2 [10] [%] | mortality at 100 g/ha [11] [%] | mortality at 4 mg/m2 ([12]; surface concentration 4 mg/m^2, exposure 30 minutes) [%] | mortality at 20 mg/m2 ([12]; surface concentration 20 mg/m^2, exposure 30 minutes) [%]
1 | Cc1nc([C@H](C)NC(=O)c2cc(C(F)(F)F)cc(C(F)(F)F)c2)n(-c2ncc(C(=O)N3CCC3)s2)n1 [Example I-17] | 100 | 100 | 100 | 100 | 80 | 100 | 100 |  |  |  |  |  |  |  | 
2 | CC(NC(=O)c1cc(Br)cc(Br)c1)c1nc(Cl)nn1-c1ccc(C(=O)N2CCOCC2)cn1 (racemic) [Example I-87, 3,5-Dibromo-N-[1-[5-chloro-2-[5-(morpholine-4-carbonyl)-2-pyridyl]-1,2,4-triazol-3-yl]ethyl]benzamide] | 90 | 100 | 100 | 90 |  |  |  |  |  |  |  |  |  |  | 
3 | Cc1nc([C@H](C)NC(=O)c2cc(Cl)cc(C(F)(F)F)c2)n(-c2ccc(C(=O)N3CC[C@@H](F)C3)cn2)n1 [Example I-19] | 100 | 100 | 100 | 100 | 100 | 100 | 90 | 100 |  |  |  |  |  |  | 
4 | C[C@@H]1CN(C(=O)c2ccc(-n3ncnc3[C@H](C)NC(=O)c3cc(OC(F)(F)F)cc(C4CC4)c3)nc2)C[C@@H](C)O1 [Example I-116] | 100 | 100 | 100 | 100 | 100 |  | 100 | 80 | 80 | 90 |  |  |  |  | 
5 | Cc1nc([C@H](C)NC(=O)c2cc(OC(F)(F)F)cc(C3CC3)c2)n(-c2ccc(C(=O)N3C[C@@H](C)O[C@H](C)C3)cn2)n1 [Example I-117] | 90 | 100 | 90 | 90 | 100 |  | 100 | 100 |  | 90 |  |  |  |  | 
6 | CC(NC(=O)c1cc(Cl)cc(OC(F)(F)F)c1)c1nc(C(F)F)nn1-c1ccc(C(=O)N2CCOCC2)cn1 (centres unmarked) [Example I-59] | 100 | 100 |  |  |  |  |  |  | 80 |  | 100 |  |  |  | 
7 | Cc1nc([C@H](C)NC(=O)c2cc(Cl)cc(C(F)(F)F)c2)n(-c2ccc(C(=O)N3CCCC3)cn2)n1 [Example I-22] | 80 | 100 | 90 | 90 | 90 | 100 |  | 100 |  |  |  |  |  |  | 
8 | C[C@H](NC(=O)c1cc(C(F)(F)F)cc(C(F)(F)F)c1)c1ncnn1-c1ccc(C(=O)N2CCCC(O)C2)cn1 (some centres unmarked) [Example I-7] | 90 | 100 | 90 | 90 | 90 |  | 100 |  |  |  |  |  |  |  | 
9 | Cc1nc([C@H](C)NC(=O)c2cc(C(F)(F)F)cc(C(F)(F)F)c2)n(-c2ccc(C(=O)N3CCO[C@H](C)C3)cn2)n1 [Example I-70] |  |  | 100 | 100 | 100 | 100 | 100 | 100 | 100 | 90 |  | 80 to 100 | 90 | 80 to 100 | 80 to 100
10 | C[C@H](NC(=O)c1cc(Cl)cc(C(F)(F)F)c1)c1ncnn1-c1ccc(C(=O)N2CCN(C)CC2)cn1 [Example I-42] | 80 | 100 | 100 |  |  |  |  |  | 80 |  |  |  |  |  | 
11 | Cc1nc([C@H](C)NC(=O)c2cc(Cl)cc(C(F)(F)F)c2)n(-c2ccc(C(=O)N3CC[C@H](F)C3)cn2)n1 [Example I-18] | 100 | 100 | 100 | 90 | 90 | 100 |  | 100 |  |  |  |  |  |  | 
12 | CC(NC(=O)c1cc(C(F)(F)F)cc(C(F)(F)F)c1)c1nc(I)nn1-c1ccc(C(=O)N2CCOCC2)cn1 (racemic) [Example I-84, N-[1-[5-iodo-2-[5-(morpholine-4-carbonyl)-2-pyridyl]-1,2,4-triazol-3-yl]ethyl]-3,5-bis(trifluoromethyl)benzamide] | 100 | 100 | 100 | 100 |  | 100 |  |  | 100 |  |  |  |  |  | 
13 | C[C@H](NC(=O)c1cc(Cl)cc(C(F)(F)F)c1)c1ncnn1-c1ccc(N2CC(F)(F)C2)cn1 [Example I-108] | 100 |  |  |  |  |  |  |  |  |  |  |  |  |  | 
14 | C[C@H](NC(=O)c1cc(Cl)cc(C(F)(F)F)c1)c1ncnn1-c1ccc(C(=O)N2CCOC[C@@H]2C)cn1 [Example I-37] | 80 | 100 | 100 | 100 |  | 100 |  | 100 | 100 |  |  |  |  |  | 
15 | C[C@H](NC(=O)c1cc(C(F)(F)F)cc(C(F)(F)F)c1)c1ncnn1-c1cc(C(=O)N2CCOCC2)ccn1 [Example I-3] | 90 |  | 100 | 100 |  |  | 90 | 100 |  |  |  |  |  |  | 
